Results published in US11618743B2, “Herbicidal compounds” (SYNGENTA PARTICIPATIONS AG, priority 2017, dated 2023).

How the values were obtained:
Experiment in all cases: Post-emergence efficacy, Method A
Assay type in all cases: in vivo
Eleusine indica (ELEIN) = conditions: Application rate 500 g/Ha, evaluated after 13 days; for Control of weed species ELEIN after post-emergence application (100=total damage to plant; 0=no damage to plant): Method A; for Control of weed species after post-emergence application, ELEIN: 100=total damage to plant, 0=no damage
In short: (§1)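 Damage rated on a 0–100 scale (100 = plant killed) 13 days after spraying. Spray contained compound in IF50 emulsifier, diluted with 0.25% or 1% Empicol ESC70 plus 1% ammonium sulphate, applied to 14-day-old glasshouse plants (24/16° C., 14 h light, 65% humidity).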

Lolium perenne (LOLPE) = conditions: Application rate 500 g/Ha, evaluated after 13 days; for Control of weed species LOLPE after post-emergence application (100=total damage to plant; 0=no damage to plant): Method A; for Control of weed species after post-emergence application, LOLPE: 100=total damage to plant, 0=no damage
In short: as §1

Setaria faberi (SETFA) = conditions: Application rate 500 g/Ha, evaluated after 13 days; for Control of weed species SETFA after post-emergence application (100=total damage to plant; 0=no damage to plant): Method A; for Control of weed species after post-emergence application, SETFA: 100=total damage to plant, 0=no damage
In short: as §1

[1] = system: Chenopodium album (CHEAL); conditions: Application rate 500 g/Ha, evaluated after 13 days; for Control of weed species CHEAL after post-emergence application (100=total damage to plant; 0=no damage to plant): Method A; for Control of weed species after post-emergence application, CHEAL: 100=total damage to plant, 0=no damage
In short: as §1

[2] = system: Ipomoea hederacea (IPOHE); conditions: Application rate 500 g/Ha, evaluated after 13 days; for Control of weed species IPOHE after post-emergence application (100=total damage to plant; 0=no damage to plant): Method A; for Control of weed species after post-emergence application, IPOHE: 100=total damage to plant, 0=no damage
In short: as §1

[3] = system: Amaranthus palmeri (AMAPA); conditions: Application rate 500 g/Ha, evaluated after 13 days; for Control of weed species AMAPA after post-emergence application (100=total damage to plant; 0=no damage to plant): Method A; for Control of weed species after post-emergence application, AMAPA: 100=total damage to plant, 0=no damage
In short: as §1

[4] = system: Echinochloa crus-galli (ECHCG); conditions: Application rate 500 g/Ha, evaluated after 13 days; for Control of weed species ECHCG after post-emergence application (100=total damage to plant; 0=no damage to plant): Method A; for Control of weed species after post-emergence application, ECHCG: 100=total damage to plant, 0=no damage
In short: as §1

[5] = system: Euphorbia heterophylla (EPHHL); conditions: Application rate 500 g/Ha, evaluated after 13 days; for Control of weed species EPHHL after post-emergence application (100=total damage to plant; 0=no damage to plant): Method A; for Control of weed species after post-emergence application, EPHHL: 100=total damage to plant, 0=no damage
In short: as §1

[6] = system: Digitaria sanguinalis (DIGSA); conditions: Application rate 500 g/Ha, evaluated after 13 days; for Control of weed species DIGSA after post-emergence application (100=total damage to plant; 0=no damage to plant): Method A; for Control of weed species after post-emergence application, DIGSA: 100=total damage to plant, 0=no damage
In short: as §1

Row | SMILES | Control of weed species ELEIN after post-emergence application (100=total damage to plant; 0=no damage to plant) (Eleusine indica (ELEIN)) | Control of weed species LOLPE after post-emergence application (100=total damage to plant; 0=no damage to plant) (Lolium perenne (LOLPE)) | Control of weed species SETFA after post-emergence application (100=total damage to plant; 0=no damage to plant) (Setaria faberi (SETFA)) | Control of weed species CHEAL after post-emergence application (100=total damage to plant; 0=no damage to plant) [1] | Control of weed species IPOHE after post-emergence application (100=total damage to plant; 0=no damage to plant) [2] | Control of weed species AMAPA after post-emergence application (100=total damage to plant; 0=no damage to plant) [3] | Control of weed species ECHCG after post-emergence application (100=total damage to plant; 0=no damage to plant) [4] | Control of weed species EPHHL after post-emergence application (100=total damage to plant; 0=no damage to plant) [5] | Control of weed species DIGSA after post-emergence application (100=total damage to plant; 0=no damage to plant) [6] | Control of weed species after post-emergence application, ELEIN (Eleusine indica (ELEIN)) | Control of weed species after post-emergence application, LOLPE (Lolium perenne (LOLPE)) | Control of weed species after post-emergence application, SETFA (Setaria faberi (SETFA)) | Control of weed species after post-emergence application, CHEAL [1] | Control of weed species after post-emergence application, IPOHE [2] | Control of weed species after post-emergence application, AMAPA [3] | Control of weed species after post-emergence application, ECHCG [4] | Control of weed species after post-emergence application, EPHHL [5] | Control of weed species after post-emergence application, DIGSA [6]
1 | N#Cc1cnc(-c2cc[n+](CCS(=O)(=O)[O-])nc2)nc1 [Compound A25] | 50 | 40 | 60 | 60 | 50 | 100 | 70 | 40 | 50 |  |  |  |  |  |  |  |  | 
2 | Cc1n[n+](CCS(=O)(=O)[O-])ccc1-c1ncccn1 [Compound A88, 2-(3-methyl-4-pyrimidin-2-yl-pyridazin-1-ium-1-yl)ethanesulfonate] | 90 | 60 | 70 | 70 | 30 | 100 | 60 | 60 | 90 |  |  |  |  |  |  |  |  | 
3 | COc1cc(C)nc(-c2cc[n+](CCS(=O)(=O)[O-])nc2)n1 [Compound A94] | 20 | 20 | 40 | 90 | 30 | 70 | 30 | 40 | 30 |  |  |  |  |  |  |  |  | 
4 | CCOP(=O)(O)CC[n+]1ccc(-c2ncccn2)cn1.O=C([O-])C(F)(F)F [Compound A113, ethoxy-[2-(4-pyrimidin-2-ylpyridazin-1-ium-1-yl)ethyl]phosphinate] | 40 | 10 | 50 | 90 | 60 | 40 | 60 | 100 | 60 |  |  |  |  |  |  |  |  | 
5 | O=c1cc(-c2cc[n+](CCCS(=O)(=O)[O-])nc2)nc[nH]1 [Compound A116] | 20 | 10 | 30 | 80 | 10 | 100 | 20 | 50 | 30 |  |  |  |  |  |  |  |  | 
6 | CCOP(=O)(CC[n+]1ccc(-c2ncccn2)cn1)OCC.O=C([O-])C(F)(F)F [Compound A124, 1-(2-diethoxyphosphorylethyl)-4-pyrimidin-2-yl-pyridazin-1-ium] | 0 | 0 | 20 | 0 | 0 | 0 | 0 | 0 | 10 |  |  |  |  |  |  |  |  | 
7 | O=C(O)c1ccnc(-c2cc[n+](CCCS(=O)(=O)[O-])nc2)n1 [Compound A146] | 80 | 50 | 100 | 40 | 30 | 90 | 90 | 50 | 80 |  |  |  |  |  |  |  |  | 
8 | O=C(O)CC[n+]1ccc(-c2ncc(Cl)c(=O)[nH]2)cn1 [Compound A161, 3-[4-(5-chloro-6-oxo-1H-pyrimidin-2-yl)pyridazin-1-ium-1-yl]propanoic acid 2,2,2-trifluoroacetate] |  |  |  |  |  |  |  |  |  | 20 | 10 | 10 | 70 | 20 | 30 | 20 | 50 | 20
9 | O=S(=O)([O-])CC[n+]1ccc(-c2cccnc2)cn1 [Compound A179] |  |  |  |  |  |  |  |  |  | 50 | 10 | 60 | 30 | 20 | 30 | 40 | 60 | 50
